Assay results as given in patent US9695155B2, “Herbicidal substituted pyrimidinyloxy benzene compounds” (E. I. DU PONT DE NEMOURS AND COMPANY, priority 2013, dated 2017).

How the values were obtained:
field bindweed = test: Test E postemergence; format: in vivo, Convolvulus arvensis
From the text: Seeds of plant species selected from corn (Zea mays), soybean (Glycine max), velvetleaf (Abutilon theophrasti), lambsquarters (Chenopodium album), wild poinsettia (Euphorbia heterophylla), palmer pigweed (Amaranthus palmeri), waterhemp (common waterhemp, Amaranthus rudis), surinam grass (Brachiaria decumbens), large (Lg) crabgrass (Digitaria sanguinalis), Brazilian crabgrass (Digitaria horizontalis), fall panicum (Panicum dichotomiflorum), giant foxtail (Setaria faberii), green foxtail (Setaria viridis), goosegrass (Eleusine indica), johnsongrass (Sorghum halepense), ragweed (common ragweed, Ambrosia elatior), barnyardgrass (Echinochloa crus-galli), sandbur (southern sandbur, Cenchrus echinatus), arrowleaf sida (Sida rhombifolia), Italian ryegrass (Lolium multiflorum), dayflower (Virginia (VA) dayflower, Commelina virginica), field bindweed (Convolvulus arvensis), morningglory (Ipomoea coccinea), nightshade (eastern black nightshade, Solanum ptycanthum), kochia (Kochia scoparia), yellow nutsedge (Cyperus esculentus), cocklebur (common cocklebur, Xanthium strumarium), smartweed (ladysthumb smartweed, and hairy beggarticks (Bidens pilosa), were planted into a silt loam soil and treated preemergence with test chemicals formulated in a non-phytotoxic solvent mixture which included a surfactant.
At the same time, plants from these crop and weed species and also horseweed (Canada horseweed, Conyza canadensis), waterhemp_RES1, (ALS & Triazine resistant common waterhemp, Amaranthus rudis), and waterhemp_RES2, (ALS & HPPD resistant common waterhemp, Amaranthus rudis) were planted in pots containing Redi-Earth® planting medium (Scotts Company, 14111 Scottslawn Road, Marysville, Ohio 43041) comprising spaghnum peat moss, vermiculite, wetting agent and starter nutrients were treated with postemergence applications of test chemicals formulated in the same manner. Plants ranged in height from 2 to 18 cm for postemergence treatments (1- to 4-leaf stage). Treated plants and controls were maintained in a greenhouse for 14 to 21 days, after which time all species were compared to controls and visually evaluated. Plant response ratings, summarized in Table E, are based on a scale of 0 to 100 where 0 is no effect and 100 is complete control. A dash (-) response means no test result.

bluegrass = test: Test D postemergence; format: in vivo, Poa annua
How it was run: (§1)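 Visual ratings from 0 (no effect) to 100 (complete control) relative to untreated plants were taken 7–21 days after treatment. Chemicals in a surfactant-containing solvent mixture were applied preemergence to seeds in silt loam, or postemergence to plants 2–18 cm tall (1–4 leaves) grown in a peat-based potting medium.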

chickweed = test: Test D preemergence; format: in vivo, Stellaria media
How it was run: as §1

Italian ryegrass [1] = test: Test D postemergence; format: in vivo, Lolium multiflorum
How it was run: as §1

blackgrass = test: Test D postemergence; format: in vivo, Alopecurus myosuroides
How it was run: as §1

Italian ryegrass [2] = test: Test D preemergence; format: in vivo, Lolium multiflorum
How it was run: as §1

windgrass [3] = test: Test D preemergence; format: in vivo, Apera spica-venti
How it was run: as §1

field poppy = test: Test D preemergence; format: in vivo, Papaver rhoeas
How it was run: as §1

winter wheat = test: Test D postemergence; format: in vivo, Triticum aestivum
How it was run: as §1

spring wheat = test: Test D postemergence; format: in vivo, Triticum aestivum
How it was run: as §1

windgrass [4] = test: Test D postemergence; format: in vivo, Apera spica-venti
How it was run: as §1

wild buckwheat = test: Test D postemergence; format: in vivo, Polygonum convolvulus
How it was run: as §1

wild oat = test: Test D preemergence; format: in vivo, Avena fatua
How it was run: as §1

[5] = Postemergence, 31 g ai/ha, scale 0 to 100
[6] = Postemergence, 62 g ai/ha, scale 0 to 100
[7] = Postemergence, 125 g ai/ha, scale 0 to 100
[8] = postemergence, 16 g ai/ha, scale 0 to 100, 0 no effect, 100 complete control
[9] = Postemergence, 62 g ai/ha, scale 0 to 100 (0 no effect, 100 complete control)
[10] = Postemergence, 31 g ai/ha, scale 0 to 100 (0 no effect, 100 complete control)
[11] = Postemergence, 125 g ai/ha, scale 0 to 100 (0 no effect, 100 complete control)
[12] = Postemergence, 250 g ai/ha, scale 0 to 100 (0 no effect, 100 complete control)
[13] = 31 g ai/ha, scale 0 (no effect) to 100 (complete control)
[14] = 62 g ai/ha, scale 0 to 100 (0 no effect, 100 complete control)
[15] = 125 g ai/ha, scale 0 to 100 (0 no effect, 100 complete control)
[16] = 250 g ai/ha, scale 0 to 100 (0 no effect, 100 complete control)
[17] = 16 g ai/ha, scale 0 (no effect) to 100 (complete control)
[18] = 31 g ai/ha, scale 0 to 100 (0 no effect, 100 complete control)

## Fc1cnc(Oc2ccccc2-n2cc(Br)cn2)nc1 [Compound 10, 2-[2-(4-bromo-1H-pyrazol-1-yl)phenoxy]-5-fluoropyrimidine]
Field bindweed; Convolvulus arvensis, post-emergence, Postemergence, 31 g ai/ha, scale 0 to 100, read-out: Plant response rating, Field Bindweed
  pest or weed control at 31 g/ha: 30%
Field bindweed; Convolvulus arvensis, post-emergence, Postemergence, 62 g ai/ha, scale 0 to 100, read-out: Plant response rating, Field Bindweed
  pest or weed control at 62 g/ha: 30%
Field bindweed; Convolvulus arvensis, post-emergence, Postemergence, 125 g ai/ha, scale 0 to 100, read-out: Plant response rating, Field Bindweed
  pest or weed control at 125 g/ha: 40%
Field bindweed; Convolvulus arvensis, post-emergence, Postemergence, 250 g ai/ha, scale 0 to 100, read-out: Plant response rating, Field Bindweed
  pest or weed control at 250 g/ha: 50%
Field bindweed; Convolvulus arvensis, post-emergence, postemergence, 16 g ai/ha, scale 0 to 100, 0 no effect, 100 complete control, read-out: Plant response rating, Field Bindweed
  pest or weed control at 16 g/ha: 15%

## FC(F)(F)c1cnn(-c2ccccc2Oc2ncc(Cl)cn2)c1 [Compound 16]
Field bindweed; [5]
  Plant response rating, Field Bindweed: 30
Field bindweed; [6]
  Plant response rating, Field Bindweed: 40
Field bindweed; [7]
  Plant response rating, Field Bindweed: 50
Field bindweed; Postemergence, 250 g ai/ha, scale 0 to 100
  Plant response rating, Field Bindweed: 60
Field bindweed; [8]
  Plant response rating, Field Bindweed: 10

## Clc1cnc(Oc2cccc(Br)c2-n2cc(Br)cn2)nc1 [Compound 65]
Field bindweed; [5]
  Plant response rating, Field Bindweed: 20
Field bindweed; [6]
  Plant response rating, Field Bindweed: 40
Field bindweed; [7]
  Plant response rating, Field Bindweed: 40
Field bindweed; postemergence, 8 g ai/ha, scale 0 to 100, 0 no effect, 100 complete control
  Plant response rating, Field Bindweed: 0
Field bindweed; [8]
  Plant response rating, Field Bindweed: 10

## N#Cc1cccc(Oc2ncc(Cl)cn2)c1-n1cc(-n2ccc(C(F)(F)F)n2)cn1 [Compound 284]
bluegrass; [9]
  Plant response rating, Bluegrass: 35
bluegrass; [10]
  Plant response rating, Bluegrass: 25
bluegrass; [11]
  Plant response rating, Bluegrass: 40
bluegrass; [12]
  Plant response rating, Bluegrass: 45
chickweed; [13]
  Plant response rating, Chickweed: 10
chickweed; 62 g ai/ha, scale 0-100
  Plant response rating, Chickweed: 15
chickweed; 125 g ai/ha, scale 0-100
  Plant response rating, Chickweed: 20
chickweed; 250 g ai/ha, scale 0-100
  Plant response rating, Chickweed: 30
Italian ryegrass [1]; 31 g ai/ha, scale 0-100
  Plant response rating, Ryegrass, Italian: 10
Italian ryegrass [1]; [14]
  Plant response rating, Ryegrass, Italian: 10
Italian ryegrass [1]; [15]
  Plant response rating, Ryegrass, Italian: 15
Italian ryegrass [1]; [16]
  Plant response rating, Ryegrass, Italian: 15
blackgrass; [9]
  Plant response rating, Blackgrass: 25
blackgrass; [10]
  Plant response rating, Blackgrass: 20
blackgrass; [11]
  Plant response rating, Blackgrass: 30
blackgrass; [12]
  Plant response rating, Blackgrass: 35
Italian ryegrass [2]; [13]
  Plant response rating, Ryegrass, Italian: 0
Italian ryegrass [2]; 125 g ai/ha, scale 0-100
  Plant response rating, Ryegrass, Italian: 0
Italian ryegrass [2]; 250 g ai/ha, scale 0-100
  Plant response rating, Ryegrass, Italian: 30
Windgrass [3]; [13]
  Plant response rating, Windgrass: 20
Windgrass [3]; 125 g ai/ha, scale 0-100
  Plant response rating, Windgrass: 45
Windgrass [3]; 250 g ai/ha, scale 0-100
  Plant response rating, Windgrass: 55
Field poppy; [13]
  Plant response rating, Field Poppy: 100
Field poppy; 62 g ai/ha, scale 0-100
  Plant response rating, Field Poppy: 100
Field poppy; 125 g ai/ha, scale 0-100
  Plant response rating, Field Poppy: 100
Field poppy; 250 g ai/ha, scale 0-100
  Plant response rating, Field Poppy: 100
Winter wheat; 31 g ai/ha, scale 0-100
  Plant response rating, Wheat, Winter: 10
Winter wheat; [14]
  Plant response rating, Wheat, Winter: 25
Winter wheat; [15]
  Plant response rating, Wheat, Winter: 20
Winter wheat; [16]
  Plant response rating, Wheat, Winter: 25
Spring wheat; 31 g ai/ha, scale 0-100
  Plant response rating, Wheat, Spring: 15
Spring wheat; [14]
  Plant response rating, Wheat, Spring: 25
Spring wheat; [15]
  Plant response rating, Wheat, Spring: 30
Spring wheat; [16]
  Plant response rating, Wheat, Spring: 35
Windgrass [4]; 31 g ai/ha, scale 0-100
  Plant response rating, Windgrass: 20
Windgrass [4]; [14]
  Plant response rating, Windgrass: 20
Windgrass [4]; [15]
  Plant response rating, Windgrass: 30
Windgrass [4]; [16]
  Plant response rating, Windgrass: 30
Wild buckwheat; [9]
  Plant response rating, Buckwheat, Wild: 100
Wild buckwheat; [10]
  Plant response rating, Buckwheat, Wild: 100
Wild buckwheat; [11]
  Plant response rating, Buckwheat, Wild: 100
Wild buckwheat; [12]
  Plant response rating, Buckwheat, Wild: 100
Wild oat; [13]
  Plant response rating, Oat, Wild: 0
Wild oat; 62 g ai/ha, scale 0-100
  Plant response rating, Oat, Wild: 0
Wild oat; 125 g ai/ha, scale 0-100
  Plant response rating, Oat, Wild: 20
Wild oat; 250 g ai/ha, scale 0-100
  Plant response rating, Oat, Wild: 50

## Clc1cnc(Oc2ccccc2-n2cc(Cl)cn2)nc1 [Compound 3]
bluegrass; [9]
  Plant response rating, Bluegrass: 0
bluegrass; [10]
  Plant response rating, Bluegrass: 0
bluegrass; [11]
  Plant response rating, Bluegrass: 0
bluegrass; [12]
  Plant response rating, Bluegrass: 10
bluegrass; [8]
  Plant response rating, Bluegrass: 40
chickweed; [17]
  Plant response rating, Chickweed: 0
chickweed; 62 g ai/ha, scale 0-100
  Plant response rating, Chickweed: 0
chickweed; 250 g ai/ha, scale 0-100
  Plant response rating, Chickweed: 90
Italian ryegrass [1]; 16 g ai/ha, scale 0-100
  Plant response rating, Ryegrass, Italian: 60
Italian ryegrass [1]; [18]
  Plant response rating, Ryegrass, Italian: 0
Italian ryegrass [1]; [14]
  Plant response rating, Ryegrass, Italian: 0
Italian ryegrass [1]; [15]
  Plant response rating, Ryegrass, Italian: 0
Italian ryegrass [1]; [16]
  Plant response rating, Ryegrass, Italian: 0
blackgrass; [9]
  Plant response rating, Blackgrass: 0
blackgrass; [10]
  Plant response rating, Blackgrass: 0
blackgrass; [11]
  Plant response rating, Blackgrass: 0
blackgrass; [12]
  Plant response rating, Blackgrass: 10
blackgrass; [8]
  Plant response rating, Blackgrass: 70
Italian ryegrass [2]; [17]
  Plant response rating, Ryegrass, Italian: 0
Italian ryegrass [2]; [13]
  Plant response rating, Ryegrass, Italian: 0
Italian ryegrass [2]; 62 g ai/ha, scale 0-100
  Plant response rating, Ryegrass, Italian: 0
Italian ryegrass [2]; 125 g ai/ha, scale 0-100
  Plant response rating, Ryegrass, Italian: 0
Italian ryegrass [2]; 250 g ai/ha, scale 0-100
  Plant response rating, Ryegrass, Italian: 0
Windgrass [3]; [17]
  Plant response rating, Windgrass: 0
Windgrass [3]; [13]
  Plant response rating, Windgrass: 0
Windgrass [3]; 62 g ai/ha, scale 0-100
  Plant response rating, Windgrass: 0
Windgrass [3]; 125 g ai/ha, scale 0-100
  Plant response rating, Windgrass: 10
Windgrass [3]; 250 g ai/ha, scale 0-100
  Plant response rating, Windgrass: 20
Field poppy; [17]
  Plant response rating, Field Poppy: 40
Field poppy; 62 g ai/ha, scale 0-100
  Plant response rating, Field Poppy: 40
Field poppy; 125 g ai/ha, scale 0-100
  Plant response rating, Field Poppy: 70
Field poppy; 250 g ai/ha, scale 0-100
  Plant response rating, Field Poppy: 80
Winter wheat; 16 g ai/ha, scale 0-100
  Plant response rating, Wheat, Winter: 65
Winter wheat; [18]
  Plant response rating, Wheat, Winter: 0
Winter wheat; [14]
  Plant response rating, Wheat, Winter: 0
Winter wheat; [15]
  Plant response rating, Wheat, Winter: 0
Winter wheat; [16]
  Plant response rating, Wheat, Winter: 0
Spring wheat; 16 g ai/ha, scale 0-100
  Plant response rating, Wheat, Spring: 60
Spring wheat; [18]
  Plant response rating, Wheat, Spring: 0
Spring wheat; [14]
  Plant response rating, Wheat, Spring: 0
Spring wheat; [15]
  Plant response rating, Wheat, Spring: 0
Spring wheat; [16]
  Plant response rating, Wheat, Spring: 0
Windgrass [4]; 16 g ai/ha, scale 0-100
  Plant response rating, Windgrass: 70
Windgrass [4]; [18]
  Plant response rating, Windgrass: 0
Windgrass [4]; [14]
  Plant response rating, Windgrass: 0
Windgrass [4]; [15]
  Plant response rating, Windgrass: 0
Windgrass [4]; [16]
  Plant response rating, Windgrass: 10
Wild buckwheat; [9]
  Plant response rating, Buckwheat, Wild: 50
Wild buckwheat; [10]
  Plant response rating, Buckwheat, Wild: 10
Wild buckwheat; [11]
  Plant response rating, Buckwheat, Wild: 60
Wild buckwheat; [12]
  Plant response rating, Buckwheat, Wild: 80
Wild buckwheat; [8]
  Plant response rating, Buckwheat, Wild: 50
Wild oat; [17]
  Plant response rating, Oat, Wild: 0
Wild oat; 31 g ai/ha, scale 0-100
  Plant response rating, Oat, Wild: 0
Wild oat; 62 g ai/ha, scale 0-100
  Plant response rating, Oat, Wild: 0
Wild oat; 125 g ai/ha, scale 0-100
  Plant response rating, Oat, Wild: 0
Wild oat; 250 g ai/ha, scale 0-100
  Plant response rating, Oat, Wild: 10
